For assay [1], the system named is IL-23, THP1 cells. Description: IL-23 assay, THP1 cells primed with IFNg, LPS stimulated, ELISA. In kind it is cell-based. The following applies: Homo sapiens, THP-1. As to the method: (§1) IL-23 assays: THP1 cells or human primary monocyte-derived dendritic cells (DC) were primed overnight with IFNg. Following one hour preincubation with compound, cells were stimulated overnight with LPS. IL-23 released into the media was quantitated by ELISA.
A general note: In an ELISA, binding on a coated surface is turned into a signal by an enzyme label.

The subject of assay [2] is IL-23, dendritic cells. The experiment in a line: IL-23 assay, human primary monocyte-derived dendritic cells, LPS stimulated, ELISA. In kind it is cell-based. The following applies: Dendritic cell, LPS stimulated, 10 pt, read-out: IL23-P19, ELISA, Dendritic, LPS, 10 pt. How it is done: as §1
Assay [3] has as its target T1, IRAK4 (Homo sapiens, UniProt Q9NWZ3).
T1 sequence (Q9NWZ3 1-460): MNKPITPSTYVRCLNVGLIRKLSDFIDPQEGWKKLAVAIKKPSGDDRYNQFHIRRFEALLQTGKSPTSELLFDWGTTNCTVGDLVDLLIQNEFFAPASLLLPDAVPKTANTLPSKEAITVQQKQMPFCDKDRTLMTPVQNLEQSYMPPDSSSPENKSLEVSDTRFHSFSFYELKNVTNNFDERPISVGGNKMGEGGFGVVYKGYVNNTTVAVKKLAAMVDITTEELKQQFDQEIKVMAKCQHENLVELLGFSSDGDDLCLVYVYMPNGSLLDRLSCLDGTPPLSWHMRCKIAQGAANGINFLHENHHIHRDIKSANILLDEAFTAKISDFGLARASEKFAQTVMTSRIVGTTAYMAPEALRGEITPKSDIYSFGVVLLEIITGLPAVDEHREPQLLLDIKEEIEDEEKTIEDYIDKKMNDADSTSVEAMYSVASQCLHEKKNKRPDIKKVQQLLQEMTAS
The experiment in a line: IRAK4 biochemical assay, ADP-Glo kinase assay. The conditions noted are these: for Selectivity (TAK1/IRAK4): ratio of TAK1 and IRAK4 IC50. How it is done: (§2) IRAK4 and TAK1 biochemical assays: kinase activity was measured by ADP-Glo kinase assay (Promega).
On the technique in general: In ADP-Glo the light output rises with the ADP produced.

The target in assay [4] is T2, TAK1 (Homo sapiens, UniProt O43318).
T2 sequence (O43318 1-303 limits assumed): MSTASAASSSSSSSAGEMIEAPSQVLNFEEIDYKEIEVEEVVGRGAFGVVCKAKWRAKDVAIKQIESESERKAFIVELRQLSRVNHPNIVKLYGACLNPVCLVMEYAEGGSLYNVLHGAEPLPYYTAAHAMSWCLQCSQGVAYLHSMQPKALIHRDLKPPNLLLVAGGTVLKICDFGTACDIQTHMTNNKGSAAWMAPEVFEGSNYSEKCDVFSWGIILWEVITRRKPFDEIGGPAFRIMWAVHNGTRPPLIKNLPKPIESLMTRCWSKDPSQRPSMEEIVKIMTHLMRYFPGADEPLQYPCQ
The experiment in a line: TAK1 biochemical assay, ADP-Glo kinase assay. As to the method:
as §2

Setting [5] is: THP1 cells, IFNy primed, LPS stimulated, 10 pt, read-out: IL23-p19 ELISA, THP1-IFNy, LPS, 10 pt.
The mark [6] stands for this setting: read-out: IL23 (LPS induced) IC50.

Molecules are shown by their SMILES. Read-outs that look alike come from different tables or passages of the source. A value given as a limit tells only on which side of the number the result lay.

With `Cc1cc(Nc2ncc(-c3cccnc3)c(NC3C4C=CC(C4)C3C(N)=O)n2)ccc1OCCN1CCCC1` (stereo not shown) [Compound 1, 3-((2-((3-methyl-4-(2-(pyrrolidin-1-yl)ethoxy)phenyl)amino)-5-(pyridin-3-yl)pyrimidin-4-yl)amino)bicyclo[2.2.1] hept-5-ene-2-carboxamide], the IC50 in assay [1] (setting [5]) is less than 100 nM; in assay [2], less than 250 nM.

Regarding `NC(=O)[C@@H]1[C@H](Nc2nc(Nc3ccc(OCCN4CCCC4)cc3)ncc2-c2cccnc2)[C@H]2C=C[C@@H]1C2` [Compound 2], the IC50 in assay [1] (setting [5]) is less than 1000 nM.

Take `CS(=O)(=O)N1CCN(c2ccc(Nc3ncc(-c4cccnc4)c(N[C@@H]4C5C=CC(C5)[C@@H]4C(N)=O)n3)cc2F)CC1` (stereo partly drawn) [Compound 3, (2S,3R)-3-((2-((3-fluoro-4-(4-(methylsulfonyl)piperazin-1-yl)phenyl)amino)-5-(pyridin-3-yl)pyrimidin-4-yl)amino)bicyclo[2.2.1] hept-5-ene-2-carboxamide]: the IC50 in assay [1] (setting [5]) was less than 1000 nM.

Turning to `NC(=O)[C@@H]1[C@H](Nc2nc(Nc3cccc(C(=O)N4CCCC4)c3)ncc2-c2cccnc2)[C@H]2C=C[C@@H]1C2` [Compound 4, (1S,2S,3R,4R)-3-((5-(pyridin-3-yl)-2-((3-(pyrrolidine-1-carbonyl)phenyl)amino)pyrimidin-4-yl)amino)bicyclo[2.2.1] hept-5-ene-2-carboxamide], the IC50 is 10 nM in assay [3], 229 nM in assay [4], less than 1000 nM in assay [1] (setting [5]) and 320 nM in assay [1] (setting [6]).

Turning to `Cc1cnc(Nc2cccc(C(=O)N3CCCC3)c2)nc1N[C@H]1[C@@H](C(N)=O)[C@@H]2C=C[C@H]1C2` [Compound 5, (1S,2S,3R,4R)-3-((5-methyl-2-((3-(pyrrolidine-1-carbonyl)phenyl)amino)pyrimidin-4-yl)amino)bicyclo[2.2.1] hept-5-ene-2-carboxamide], the IC50 in assay [3] was 3 nM; in assay [4], 8 nM; in assay [1] (setting [5]), less than 100 nM; in assay [1] (setting [6]) it was 100 nM.

On to `NC(=O)[C@@H]1[C@H](Nc2nc(Nc3cccc(C(=O)N4CCCC4)c3)ncc2-c2ccccc2F)[C@H]2C=C[C@@H]1C2` [Compound 10, (1S,2S,3R,4R)-3-((5-(2-fluorophenyl)-2-((3-(pyrrolidine-1-carbonyl)phenyl)amino)pyrimidin-4-yl)amino)bicyclo[2.2.1] hept-5-ene-2-carboxamide], for which the IC50 was 11 nM in assay [3], 4800 nM in assay [4], less than 1000 nM in assay [1] (setting [5]) and 870 nM in assay [1] (setting [6]). This molecule also returned an IRAK4/TAK1 selectivity in assay [3] of 434. In addition, the “Selectivity (TAK1/IRAK4)” value in assay [3] was found to be 434.

For `N#Cc1cccc(-c2cnc(Nc3cccc(C(=O)N4CCCC4)c3)nc2N[C@@H]2CCCC[C@@H]2C(N)=O)c1` [Compound 17, (1S,2R)-2-((5-(3-cyanophenyl)-2-((3-(pyrrolidine-1-carbonyl)phenyl)amino)pyrimidin-4-yl)amino)cyclohexane-1-carboxamide], the IC50 was 30 nM in assay [3], 67 nM in assay [4], less than 1000 nM in assay [1] (setting [5]) and 900 nM in assay [1] (setting [6]). In addition, in assay [3], the “Selectivity (TAK1/IRAK4)” value was found to be 2.

As to `N#Cc1cccc(-c2cnc(Nc3cccc(C(=O)N4CCCC4)c3)nc2N[C@H]2[C@@H](C#N)[C@@H]3C=C[C@H]2C3)c1` [Compound 18, (1S,2S,3R,4R)-3-((5-(3-cyanophenyl)-2-((3-(pyrrolidine-1-carbonyl)phenyl)amino)pyrimidin-4-yl)amino)bicyclo[2.2.1] hept-5-ene-2-carbonitrile], the IC50 in assay [3] was 3700 nM; in assay [4], 132000 nM; in assay [1] (setting [5]) it was greater than 1000 nM; in assay [1] (setting [6]) it was 3400 nM. Moreover, in assay [3], the “Selectivity (TAK1/IRAK4)” value came out at 36.

The values above are taken from patent publication US11524955B2, “2,4-diamino-pyrimidine compounds and method for making and using the compounds” (Rigel Pharmaceuticals, Inc., priority 2016, dated 2022).
